From US7553871B2, “Fatty acid antimicrobial” (GEA WestfaliaSurge, Inc., priority 1996, dated 2009)

How the values were obtained:
Format in all cases: cell-based
Staphylococcus aureus [1] = assay: In vitro suspension kill test, 1 minute contact at 37° C., survivors plated (Examples 1, 4, 5); details: 1 minute at 37° C.
Experimental: (§1) A set of in vitro tests was run on Staphylococcus aureus, Escherichia coli, Streptococcus agalactiae, Streptococcus uberis, Staphylococcus epidermidis, and Pseudomonas aeruginosa. A culture of the microorganism was first prepared according to the following procedure. Six to ten milliliters of trypticase soy broth was inoculated with the organism under consideration from a frozen or refrigerated stock. After incubation for five to seven hours at 37° C., the culture was transferred to a flask containing trypticase soy broth. The culture in the flask was then incubated on a gyratory shaker at approximately 1500 rpm overnight at 37° C. The next day, the culture in the flask is washed once in phosphate buffered saline solution (PBS) and stored at approximately 4° C. until needed. […]
(§2) The surviving bacteria suspended in quencher solution were then diluted with PBS and plated on appropriate media, for example, MacConkey for Escherichia coli, Staph 110 for Staphylococcus, and trypticase soy agar with 6% Sheep's blood for Streptococcus. The plates were incubated 24 to 48 hours at 37° C. and counted. The surviving organisms were expressed as colony forming units (CFU)/ml, and compared to the negative control as percent survival. […]

Escherichia coli [2] = assay: In vitro suspension kill test, 1 minute contact at 37° C., survivors plated (Examples 1, 5); details: 1 minute at 37° C.
Experimental: as §1, §2

Pseudomonas aeruginosa = assay: In vitro suspension kill test, 1 minute contact at 37° C., survivors plated (Example 1); details: diluted with organic load (1:1 with whole milk)
Experimental: (§3) A set of in vitro tests was run on Staphylococcus aureus, Escherichia coli, Streptococcus agalactiae, Streptococcus uberis, Staphylococcus epidermidis, and Pseudomonas aeruginosa. A culture of the microorganism was first prepared according to the following procedure. Six to ten milliliters of trypticase soy broth was inoculated with the organism under consideration from a frozen or refrigerated stock. After incubation for five to seven hours at 37° C., the culture was transferred to a flask containing trypticase soy broth. The culture in the flask was then incubated on a gyratory shaker at approximately 1500 rpm overnight at 37° C. The next day, the culture in the flask is washed once in phosphate buffered saline solution (PBS) and stored at approximately 4° C. until needed.
(§4) To test a specific antimicrobial's efficacy, ten milliliters of the culture was transferred to a 15 milliliter centrifuge tube and centrifuged at approximately 600 to 700 g for approximately five to ten minutes. After decanting the supernatant, ten milliliters of the antimicrobial (or PBS in the negative, or untreated, control) was added, and the centrifuge tube vortexed to suspend the bacteria. In those tests involving “organic loads”, a 1:1 dilution of the antimicrobial with whole milk was made before addition to the cultured microorganism to simulate conditions the product may have to experience in a real life environment, such as on a cow's teat.
(§5) The tube was then placed in a 37° C. water bath for 1 minute. The tube was centrifuged again at approximately 600 to 700 g for approximately five to ten minutes, and the supernatant decanted. The remaining precipitate was then suspended in a quencher solution containing letheen broth, 1% sodium thiosulfate and 0.2 mM CaCl2. The tube was centrifuged at approximately 600 to 700 g for approximately five to ten minutes, decanted and washed a second time in the quencher solution.
(§6) The surviving bacteria suspended in quencher solution were then diluted with PBS and plated on appropriate media, for example, MacConkey for Escherichia coli, Staph 110 for Staphylococcus, and trypticase soy agar with 6% Sheep's blood for Streptococcus. The plates were incubated 24 to 48 hours at 37° C. and counted. The surviving organisms were expressed as colony forming units (CFU)/ml, and compared to the negative control as percent survival.

[3] = test system: Staphylococcus epidermidis; assay: as above; details: diluted with organic load (1:1 with whole milk)
Experimental: as §3, §4, §5, §6

Streptococcus agalactiae = assay: as above; details: diluted with organic load (1:1 with whole milk)
Experimental: as §3, §4, §5, §6

Streptococcus uberis = assay: as above; details: diluted with organic load (1:1 with whole milk)
Experimental: as §3, §4, §5, §6

Escherichia coli [4] = assay: Excised dairy cow teat dip test (Example 2); details: Escherichia coli on excised cow teats; dipped, drained ten minutes; log mean CFU/ml vs negative control
Experimental: (§7) Another set of in vitro tests were run on Staphylococcus aureus, Escherichia coli, and Streptococcus uberis. A culture of the microorganism was first prepared according to the following procedure. Six to ten milliliters of trypticase soy broth was inoculated with the organism under consideration from a frozen or refrigerated stock. After incubation for five to seven hours at 37° C., the culture was transferred to a flask containing 200 milliliters of trypticase soy broth. The culture in the flask was then incubated on a gyratory shaker at approximately 1500 rpm overnight at 37° C. The next day, the culture in the flask is washed once in PBS or 0.1% protease peptone, and stored at approximately 4° C. until required.
(§8) The tests were run using dairy cow teats which had been obtained from a slaughter house. The teats were cut off at their connection to the udder, cleaned, and all hair was removed by using an open flame. The teats selected for the testing were screened for lesions, cuts, scars or other abnormalities. The teats were stored until needed in plastic bags in ice at a temperature below freezing. […]
(§9) Countable dilutions were plated on appropriate media, and incubated from 24 to 48 hours at 37° C. The colonies were counted macroscopically with the aid of fluorescent light. Non-typical colonies were not counted. […]

Staphylococcus aureus [5] = assay: Excised dairy cow teat dip test (Example 2); details: Staphylococcus aureus on excised cow teats; dipped, drained ten minutes; log mean CFU/ml vs negative control
Experimental: as §7, §8, §9

[6] = diluted with organic load (1:1 with whole milk)

## [O][Cl+][O-] [chlorine dioxide]
Staphylococcus aureus [1]; [6]
  Percent Survival: 16.96%
Staphylococcus aureus [1]; undiluted antimicrobial, CFU/ml compared to negative control
  Percent Survival: 0%
Escherichia coli [2]; [6]
  Percent Survival: 0%
Escherichia coli [2]; undiluted antimicrobial
  Percent Survival: 0%
Pseudomonas aeruginosa
  Percent Survival: 0%
[3]
  Percent Survival: 5%
Streptococcus agalactiae
  Percent Survival: 0%
Streptococcus uberis
  Percent Survival: 5.19%
Escherichia coli [4]
  Percent Log Reduction: 22%
Staphylococcus aureus [5]
  Percent Log Reduction: 33.90%
